Laboratory results reported in ChEMBL document CHEMBL5352429, “Designed symmetrical β-hairpin peptides for treating multidrug-resistant salmonella typhimurium infections” (Eur J Med Chem, 2022).
Values after ≈ are worked out from the molar mass of the structure shown. Active and inactive are the calls of the source. No cut-off for these calls is given here. Peptide text beside a SMILES is read from it.

How the values were obtained:
Salmonella typhimurium [1] = assay: Antibacterial activity against multi-drug resistant Salmonella typhimurium DT104 assessed as inhibition of bacterial growth at 0.5 to 2 times of MIC by MH agar based serial dilution method; assay type: functional, organism-based; details: Salmonella enterica subsp. enterica serovar Typhimurium, time <= 120.0 min, TDE = time-dependent effect
Salmonella typhimurium [2] = assay: Antibacterial activity against Salmonella typhimurium DT104 in the presence of NaCl by MH broth based assay; assay type: functional, Salmonella enterica subsp. enterica serovar Typhimurium; details: Salmonella enterica
Salmonella typhimurium [3] = assay: Antibacterial activity against Salmonella typhimurium DT104 ATCC 700408 incubated overnight by standard microtiter dilution method; assay type: functional, Salmonella enterica subsp. enterica serovar Typhimurium; details: Salmonella enterica
Escherichia coli = assay: Antibacterial activity against Escherichia coli O157:H7 CICC 21530 incubated overnight by standard microtiter dilution method; assay type: functional
Salmonella typhimurium [4] = assay: Antibacterial activity against Salmonella typhimurium DT104 in the presence of MgCl2 by MH broth based assay; assay type: functional, Salmonella enterica subsp. enterica serovar Typhimurium; details: Salmonella enterica
[5] = test system: Staphylococcus epidermidis; assay: Antibacterial activity against methicillin-resistant Staphylococcus epidermidis ATCC 12228 incubated overnight by standard microtiter dilution method; assay type: functional
Lipopolysaccharide (LPS) = assay: Displacement of BODIPY-TR-cadaverine from Salmonella typhimurium LPS assessed as increase in fluorescence intensity by fluorescence spectrophotometric analysis; details: Salmonella enterica subsp. enterica serovar Typhimurium; dose 0.25-8 µg/ml
Salmonella enteritidis = assay: Antibacterial activity against Salmonella enteritidis CICC 21527 incubated overnight by standard microtiter dilution method; assay type: functional, Salmonella enterica subsp. enterica serovar Enteritidis; details: Salmonella enterica
Candida albicans = assay: Antifungal activity against Candida albicans ATCC 10231 incubated overnight by standard microtiter dilution method; assay type: functional
Salmonella typhimurium [6] = assay: Antibacterial activity against Salmonella typhimurium DT104 in the presence 25% inactivated mouse serum by MH broth based assay; assay type: functional, Salmonella enterica subsp. enterica serovar Typhimurium; details: Salmonella enterica
RAW264.7 [7] = assay: Inhibition of LPS-stimulated TNF-alpha production in mouse RAW264.7 cells at 1 to 128 ug/ml incubated for 24 hrs by ELISA analysis; assay type: functional, cell-based; details: dose 1-128 µg/ml
Salmonella typhimurium [8] = assay: Antibacterial activity against Salmonella typhimurium CICC 21483 incubated overnight by standard microtiter dilution method; assay type: functional, Salmonella enterica subsp. enterica serovar Typhimurium; details: Salmonella enterica
Salmonella typhimurium [9] = assay: Antibacterial activity against Salmonella typhimurium DT104 in the presence of NH4Cl by MH broth based assay; assay type: functional, Salmonella enterica subsp. enterica serovar Typhimurium; details: Salmonella enterica
Enterococcus faecalis = assay: Antibacterial activity against Enterococcus faecalis ATCC 29212 incubated overnight by standard microtiter dilution method; assay type: functional
Salmonella paratyphi = assay: Antibacterial activity against Salmonella paratyphi A CICC 21501 incubated overnight by standard microtiter dilution method; assay type: functional, Salmonella enterica subsp. enterica serovar Paratyphi A; details: Salmonella enterica
[10] = Cytotoxicity against mouse RAW264.7 cells assessed as cell viability at 128 ug/ml incubated for 24 hrs by MTT assay; assay type: toxicity, cell-based; details: at 128 µg/mL, read-out: Activity
Salmonella typhimurium [11] = assay: Antibacterial activity against Salmonella typhimurium DT104 in the presence of FeCl3 by MH broth based assay; assay type: functional, Salmonella enterica subsp. enterica serovar Typhimurium; details: Salmonella enterica
RAW264.7 [12] = assay: Inhibition of LPS-stimulated IL-1beta production in mouse RAW264.7 cells at 1 to 128 ug/ml incubated for 24 hrs by ELISA analysis; assay type: functional, cell-based; details: dose 1-128 µg/ml
Salmonella typhimurium [13] = assay: Antibacterial activity against multi-drug resistant Salmonella typhimurium DT104 assessed as inhibition of bacterial growth measured upto 120 mins by MH agar based serial dilution method; assay type: functional, organism-based; details: Salmonella enterica subsp. enterica serovar Typhimurium
[14] = Antibacterial activity against Salmonella enterica subsp. enterica serovar Choleraesuis ATCC 13312 incubated overnight by standard microtiter dilution method; assay type: functional
[15] = Antibacterial activity against Salmonella wandsworth CICC 21504 incubated overnight by standard microtiter dilution method; assay type: functional, Salmonella enterica subsp. enterica serovar Wandsworth; details: Salmonella enterica
RAW264.7 [16] = assay: Inhibition of LPS-stimulated NO production in mouse RAW264.7 cells incubated for 24 hrs by Griess reagent based analysis; assay type: functional, cell-based; details: dose 1-128 µg/ml
Salmonella typhimurium [17] = assay: Antibacterial activity against Salmonella typhimurium CICC 21913 incubated overnight by standard microtiter dilution method; assay type: functional, Salmonella enterica subsp. enterica serovar Typhimurium; details: Salmonella enterica
[18] = Hemolytic activity in human Red blood cells assessed as hemolysis at 128 ug/ml incubated for 1 hrs by absorbance based microplate reader analysis relative to control; assay type: toxicity, cell-based, Erythrocyte; details: red blood cells (erythrocytes), at 128 µg/mL, read-out: Activity
Salmonella typhimurium [19] = assay: Antibacterial activity against Salmonella typhimurium DT104 in the presence 50% inactivated mouse serum by MH broth based assay; assay type: functional, Salmonella enterica subsp. enterica serovar Typhimurium; details: Salmonella enterica
[20] = Antibacterial activity against Salmonella dublin CICC 21497 incubated overnight by standard microtiter dilution method; assay type: functional, Salmonella enterica subsp. enterica serovar Dublin; details: Salmonella enterica
Salmonella typhimurium [21] = assay: Antibacterial activity against Salmonella typhimurium DT104 in the presence of KCl by MH broth based assay; assay type: functional, Salmonella enterica subsp. enterica serovar Typhimurium; details: Salmonella enterica
[22] = Antibacterial activity against Salmonella blockley CICC 21489 incubated overnight by standard microtiter dilution method; assay type: functional, Salmonella enterica subsp. enterica serovar Blockley; details: Salmonella enterica
Salmonella typhimurium [23] = assay: Antibacterial activity against Salmonella typhimurium DT104 in the presence of CaCl2 by MH broth based assay; assay type: functional, Salmonella enterica subsp. enterica serovar Typhimurium; details: Salmonella enterica
[24] = Antibacterial activity against Salmonella paratyphi C CICC 21512 incubated overnight by standard microtiter dilution method; assay type: functional, Salmonella enterica subsp. enterica serovar Paratyphi C; details: Salmonella enterica
[25] = test system: Salmonella enterica subsp. enterica serovar Paratyphi B; assay: Antibacterial activity against Salmonella paratyphi B CICC 21495 incubated overnight by standard microtiter dilution method; assay type: functional
Staphylococcus aureus [26] = assay: Antibacterial activity against methicillin-resistant Staphylococcus aureus ATCC 43300 incubated overnight by standard microtiter dilution method; assay type: functional
Erythrocyte = assay: Hemolytic activity in human Red blood cells assessed as hemolysis incubated for 1 hrs by absorbance based microplate reader analysis; assay type: toxicity, cell-based
RAW264.7 [27] = assay: Inhibition of LPS-stimulated IL-8 production in mouse RAW264.7 cells at 1 to 128 ug/ml incubated for 24 hrs by ELISA analysis; assay type: functional, cell-based; details: dose 1-128 µg/ml
Cell membrane = assay: Disruption of membrane integrity in Salmonella typhimurium DT104 assessed as increase in fluorescence intensity at 0.5 to 2 times of MIC incubated for 15 mins by PI staining based flow cytometric analysis; assay type: subcellular; details: Salmonella enterica subsp. enterica serovar Typhimurium
Staphylococcus aureus [28] = assay: Antibacterial activity against Staphylococcus aureus ATCC 29213 incubated overnight by standard microtiter dilution method; assay type: functional
[29] = Antibacterial activity against Salmonella enterica subsp. enterica serovar Choleraesuis CICC 21493 incubated overnight by standard microtiter dilution method; assay type: functional

Row | Compound | MIC (Salmonella typhimurium [2]) [µg/mL] | MIC (Salmonella typhimurium [3]) [µg/mL] | MIC (Escherichia coli) [µg/mL] | MIC (Salmonella typhimurium [4]) [µg/mL] | MIC [5] [µg/mL] | Activity (Lipopolysaccharide (LPS)) | MIC (Salmonella enteritidis) [µg/mL] | MIC (Candida albicans) [µg/mL] | MIC (Salmonella typhimurium [6]) [µg/mL] | inhibition (RAW264.7 [7]) | MIC (Salmonella typhimurium [8]) [µg/mL] | MIC (Salmonella typhimurium [9]) [µg/mL] | MIC (Enterococcus faecalis) [µg/mL] | MIC (Salmonella paratyphi) [µg/mL] | viability at 24 h, 128 ug/ml [10] [%] | MIC (Salmonella typhimurium [11]) [µg/mL] | inhibition (RAW264.7 [12]) | MIC [14] [µg/mL] | MIC [15] [µg/mL] | inhibition (RAW264.7 [16]) | other results
1 | CC(C)C[C@H](NC(=O)[C@H](CCCCN)NC(=O)[C@H](CC(C)C)NC(=O)[C@H](CCCCN)NC(=O)[C@H](CC(C)C)NC(=O)[C@H](CCCCN)NC(=O)[C@H](CS)NC(=O)CNC(=O)[C@H](CO)NC(=O)[C@H](CCCCN)NC(=O)[C@@H](NC(=O)[C@H](CS)NC(=O)[C@H](CCCCN)NC(=O)[C@H](CC(C)C)NC(=O)[C@H](CCCCN)NC(=O)[C@H](CC(C)C)NC(=O)[C@H](CCCCN)NC(=O)[C@@H](N)CC(C)C)[C@@H](C)O)C(N)=O (H-LKLKLKCTKSGCKLKLKL-NH2) | > 128 | 64 (≈ 31.3 µM) | 8 (≈ 3.91 µM) | > 128 | 32 (≈ 15.6 µM) | Dose-Dependent Effect | 64 (≈ 31.3 µM) | 128 (≈ 62.6 µM) | > 128 | Active | 128 (≈ 62.6 µM) | > 128 | 64 (≈ 31.3 µM) | > 128 | 14.2 | > 128 | Active | 4 (≈ 1.96 µM) | 128 (≈ 62.6 µM) | Dose-Dependent Effect | Activity (Salmonella typhimurium [1]): Tde; Activity (Salmonella typhimurium [13]): Dose-Dependent Effect; MIC (Salmonella typhimurium [17]): > 128 µg/mL; hemolysis at 1 h, 128 ug/ml [18]: 16.4%; MIC (Salmonella typhimurium [19]): > 128 µg/mL; MIC [20]: 32 µg/mL (≈ 15.6 µM); MIC (Salmonella typhimurium [21]): > 128 µg/mL; MIC [22]: 128 µg/mL (≈ 62.6 µM); MIC (Salmonella typhimurium [23]): > 128 µg/mL; MIC [24]: 4 µg/mL (≈ 1.96 µM); MIC [25]: 4 µg/mL (≈ 1.96 µM); MIC (Staphylococcus aureus [26]): > 128 µg/mL; MHC (Erythrocyte): 64 µg/mL; inhibition (RAW264.7 [27]): Active; Activity (Cell membrane): Active; MIC (Staphylococcus aureus [28]): > 128 µg/mL; MIC [29]: 128 µg/mL (≈ 62.6 µM)
2 | CC(C)[C@H](N)C(=O)N[C@@H](CCCCN)C(=O)N[C@H](C(=O)N[C@@H](CCCCN)C(=O)N[C@H](C(=O)N[C@@H](CCCCN)C(=O)N[C@@H](CS)C(=O)N[C@H](C(=O)N[C@@H](CCCCN)C(=O)N[C@@H](CO)C(=O)NCC(=O)N[C@@H](CS)C(=O)N[C@@H](CCCCN)C(=O)N[C@H](C(=O)N[C@@H](CCCCN)C(=O)N[C@H](C(=O)N[C@@H](CCCCN)C(=O)N[C@H](C(N)=O)C(C)C)C(C)C)C(C)C)[C@@H](C)O)C(C)C)C(C)C (H-VKVKVKCTKSGCKVKVKV-NH2) | > 128 | 32 (≈ 16.3 µM) | 2 (≈ 1.02 µM) | > 128 | 4 (≈ 2.04 µM) | Dose-Dependent Effect | 32 (≈ 16.3 µM) | 8 (≈ 4.08 µM) | > 128 | Active | 64 (≈ 32.6 µM) | 64 | 4 (≈ 2.04 µM) | 2 (≈ 1.02 µM) | 39.8 | 64 | Active | 0.5 (≈ 0.255 µM) | 4 (≈ 2.04 µM) | Dose-Dependent Effect | MIC (Salmonella typhimurium [17]): > 128 µg/mL; hemolysis at 1 h, 128 ug/ml [18]: < 10%; MIC (Salmonella typhimurium [19]): > 128 µg/mL; MIC [20]: 4 µg/mL (≈ 2.04 µM); MIC (Salmonella typhimurium [21]): 128 µg/mL; MIC [22]: 16 µg/mL (≈ 8.16 µM); MIC (Salmonella typhimurium [23]): > 128 µg/mL; MIC [24]: 2 µg/mL (≈ 1.02 µM); MIC [25]: 1 µg/mL (≈ 0.51 µM); MIC (Staphylococcus aureus [26]): > 128 µg/mL; MHC (Erythrocyte): > 128 µg/mL; inhibition (RAW264.7 [27]): Active; Activity (Cell membrane): Active; MIC (Staphylococcus aureus [28]): > 128 µg/mL; MIC [29]: 32 µg/mL (≈ 16.3 µM)
